# Counter-ions that a name gives are not always drawn.
# Tests used:
# [1] = molecular target: T1, NMDA receptor subunits 1A/2B (Rattus norvegicus, UniProt P35439+Q00960); assay: Electrophysiological assay at NMDA receptor subunits expressed in Xenopus oocytes, 1A/2B; format: cell-based; conditions: Xenopus oocytes; glutamate 100 μm and glycine 1-100 μm; read-out: Subunits IC50, 1A/2B
# T1 construct: expressed in transfected cells; host or cells: Xenopus laevis oocytes (cRNA injection; clones from Dr. P. H. Seeburg)
# Outline: (§1)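 Two-electrode voltage clamp of Xenopus oocytes injected with rat NR1A plus NR2A, 2B or 2C cRNA (1:1), recorded 3–21 days post-injection in Ringer's, pH 7.4. Currents evoked by glutamate (100 μm) with glycine (1–100 μm); antagonist applied by bath perfusion at rising concentrations, IC50 from logistic fit or linear regression for incomplete curves.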
# [2] = molecular target: T2, NMDA receptor subunits 1A/2A (Rattus norvegicus, UniProt P35439+Q00959); assay: Electrophysiological assay at NMDA receptor subunits expressed in Xenopus oocytes, 1A/2A; format: cell-based; conditions: glutamate 100 μm and glycine 1-100 μm
# T2 construct: expressed in transfected cells; host or cells: Xenopus laevis oocytes (cRNA injection; clones from Dr. P. H. Seeburg)
# Outline: as §1
# [3] = system: Maximal Electroshock-induced Seizures; assay: Maximal electroshock-induced seizures (MES); format: in vivo; conditions: Mus musculus; mice; 50 mA, 60 pulses/sec, 1 sec
# Source text: Seizures were induced by application of current (50 mA, 60 pulses/sec, 0.8 sec pulse width, 1 sec duration, d.c.) through saline-coated corneal electrodes using a Ugo Basile ECT device (Model 7801). […] A tonic seizure was defined as a hindlimb extension in excess of 90 degrees from the plane of the body.
# [4] = molecular target: T3, NMDA receptor subunits 1A/2C (Rattus norvegicus, UniProt P35439+Q00961); assay: Electrophysiological assay at NMDA receptor subunits expressed in Xenopus oocytes, 1A/2C; format: cell-based; conditions: Xenopus oocytes; glutamate 100 μm and glycine 1-100 μm; read-out: Subunits IC50, 1A/2C
# T3 construct: expressed in transfected cells; host or cells: Xenopus laevis oocytes (cRNA injection; clones from Dr. P. H. Seeburg)
# Outline: as §1
# T3 sequence (Q00961 20-1237, other chains not shown): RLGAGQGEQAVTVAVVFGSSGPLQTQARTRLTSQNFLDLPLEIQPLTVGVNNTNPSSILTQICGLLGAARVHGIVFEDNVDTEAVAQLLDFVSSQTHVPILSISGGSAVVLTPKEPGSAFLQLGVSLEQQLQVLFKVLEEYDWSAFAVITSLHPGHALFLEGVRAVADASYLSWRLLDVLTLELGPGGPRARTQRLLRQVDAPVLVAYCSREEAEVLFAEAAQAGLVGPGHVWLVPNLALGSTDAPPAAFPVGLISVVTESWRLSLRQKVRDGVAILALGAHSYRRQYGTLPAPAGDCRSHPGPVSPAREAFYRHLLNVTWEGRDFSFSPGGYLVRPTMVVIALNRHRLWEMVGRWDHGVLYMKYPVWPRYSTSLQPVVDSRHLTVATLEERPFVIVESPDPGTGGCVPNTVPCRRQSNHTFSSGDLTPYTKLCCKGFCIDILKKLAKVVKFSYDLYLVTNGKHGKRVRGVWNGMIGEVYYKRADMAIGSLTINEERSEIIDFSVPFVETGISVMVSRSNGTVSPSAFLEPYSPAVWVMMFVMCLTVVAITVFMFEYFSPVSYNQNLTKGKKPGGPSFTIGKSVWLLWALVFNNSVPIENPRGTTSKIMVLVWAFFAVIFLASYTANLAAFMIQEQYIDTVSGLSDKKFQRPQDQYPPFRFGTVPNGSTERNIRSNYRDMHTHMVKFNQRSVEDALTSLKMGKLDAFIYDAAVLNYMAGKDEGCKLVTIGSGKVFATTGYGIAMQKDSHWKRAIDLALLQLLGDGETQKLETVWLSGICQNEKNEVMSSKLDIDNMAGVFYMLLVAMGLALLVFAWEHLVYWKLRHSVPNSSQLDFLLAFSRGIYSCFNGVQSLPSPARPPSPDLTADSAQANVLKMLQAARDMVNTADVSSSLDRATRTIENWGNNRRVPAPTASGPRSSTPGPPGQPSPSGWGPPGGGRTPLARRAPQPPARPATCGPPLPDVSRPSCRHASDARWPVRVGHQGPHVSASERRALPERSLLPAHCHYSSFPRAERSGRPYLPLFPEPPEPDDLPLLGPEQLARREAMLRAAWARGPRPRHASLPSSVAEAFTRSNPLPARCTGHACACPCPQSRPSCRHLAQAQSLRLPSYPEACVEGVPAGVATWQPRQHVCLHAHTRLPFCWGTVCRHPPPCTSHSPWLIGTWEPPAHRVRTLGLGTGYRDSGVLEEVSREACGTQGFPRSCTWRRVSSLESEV
# T1 sequence (Q00960 27-1482, other chains not shown): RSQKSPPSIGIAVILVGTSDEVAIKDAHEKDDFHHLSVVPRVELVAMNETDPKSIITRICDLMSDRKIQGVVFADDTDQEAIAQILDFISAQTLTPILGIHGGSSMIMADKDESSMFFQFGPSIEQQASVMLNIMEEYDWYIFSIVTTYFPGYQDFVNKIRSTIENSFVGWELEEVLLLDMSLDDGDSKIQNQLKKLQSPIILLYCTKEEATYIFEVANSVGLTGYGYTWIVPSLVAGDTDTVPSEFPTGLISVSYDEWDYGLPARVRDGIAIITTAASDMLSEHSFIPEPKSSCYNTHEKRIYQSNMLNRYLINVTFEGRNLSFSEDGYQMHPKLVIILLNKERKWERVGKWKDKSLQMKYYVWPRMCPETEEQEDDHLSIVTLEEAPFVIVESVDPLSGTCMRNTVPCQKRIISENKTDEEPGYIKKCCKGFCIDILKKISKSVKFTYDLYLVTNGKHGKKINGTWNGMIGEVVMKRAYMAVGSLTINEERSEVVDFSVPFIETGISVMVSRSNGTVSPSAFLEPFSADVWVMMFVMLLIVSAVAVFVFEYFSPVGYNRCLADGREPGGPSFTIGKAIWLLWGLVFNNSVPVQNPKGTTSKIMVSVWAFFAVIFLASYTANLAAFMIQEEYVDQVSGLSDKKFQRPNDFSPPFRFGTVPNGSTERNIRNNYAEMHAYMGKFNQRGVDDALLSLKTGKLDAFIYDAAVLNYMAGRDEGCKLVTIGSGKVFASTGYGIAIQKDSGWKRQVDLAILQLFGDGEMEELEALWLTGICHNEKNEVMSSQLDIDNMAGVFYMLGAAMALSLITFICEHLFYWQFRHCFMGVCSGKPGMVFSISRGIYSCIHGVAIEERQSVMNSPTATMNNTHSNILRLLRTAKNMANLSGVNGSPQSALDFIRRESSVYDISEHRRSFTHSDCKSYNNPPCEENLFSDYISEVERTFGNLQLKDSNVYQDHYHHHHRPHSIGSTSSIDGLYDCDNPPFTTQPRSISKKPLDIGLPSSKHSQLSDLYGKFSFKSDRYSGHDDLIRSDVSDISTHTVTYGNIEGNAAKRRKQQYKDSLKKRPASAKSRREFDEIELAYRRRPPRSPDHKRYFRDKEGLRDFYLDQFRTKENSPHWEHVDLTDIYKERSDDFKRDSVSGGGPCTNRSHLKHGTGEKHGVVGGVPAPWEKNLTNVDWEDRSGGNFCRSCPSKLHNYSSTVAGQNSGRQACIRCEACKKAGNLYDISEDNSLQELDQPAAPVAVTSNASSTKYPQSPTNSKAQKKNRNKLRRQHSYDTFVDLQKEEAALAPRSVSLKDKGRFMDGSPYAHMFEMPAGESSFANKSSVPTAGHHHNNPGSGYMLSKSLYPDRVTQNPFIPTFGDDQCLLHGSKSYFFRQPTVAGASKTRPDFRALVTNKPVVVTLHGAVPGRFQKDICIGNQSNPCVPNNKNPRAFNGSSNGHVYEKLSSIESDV
# T2 sequence (Q00959 20-1464 limits assumed, other chains not shown): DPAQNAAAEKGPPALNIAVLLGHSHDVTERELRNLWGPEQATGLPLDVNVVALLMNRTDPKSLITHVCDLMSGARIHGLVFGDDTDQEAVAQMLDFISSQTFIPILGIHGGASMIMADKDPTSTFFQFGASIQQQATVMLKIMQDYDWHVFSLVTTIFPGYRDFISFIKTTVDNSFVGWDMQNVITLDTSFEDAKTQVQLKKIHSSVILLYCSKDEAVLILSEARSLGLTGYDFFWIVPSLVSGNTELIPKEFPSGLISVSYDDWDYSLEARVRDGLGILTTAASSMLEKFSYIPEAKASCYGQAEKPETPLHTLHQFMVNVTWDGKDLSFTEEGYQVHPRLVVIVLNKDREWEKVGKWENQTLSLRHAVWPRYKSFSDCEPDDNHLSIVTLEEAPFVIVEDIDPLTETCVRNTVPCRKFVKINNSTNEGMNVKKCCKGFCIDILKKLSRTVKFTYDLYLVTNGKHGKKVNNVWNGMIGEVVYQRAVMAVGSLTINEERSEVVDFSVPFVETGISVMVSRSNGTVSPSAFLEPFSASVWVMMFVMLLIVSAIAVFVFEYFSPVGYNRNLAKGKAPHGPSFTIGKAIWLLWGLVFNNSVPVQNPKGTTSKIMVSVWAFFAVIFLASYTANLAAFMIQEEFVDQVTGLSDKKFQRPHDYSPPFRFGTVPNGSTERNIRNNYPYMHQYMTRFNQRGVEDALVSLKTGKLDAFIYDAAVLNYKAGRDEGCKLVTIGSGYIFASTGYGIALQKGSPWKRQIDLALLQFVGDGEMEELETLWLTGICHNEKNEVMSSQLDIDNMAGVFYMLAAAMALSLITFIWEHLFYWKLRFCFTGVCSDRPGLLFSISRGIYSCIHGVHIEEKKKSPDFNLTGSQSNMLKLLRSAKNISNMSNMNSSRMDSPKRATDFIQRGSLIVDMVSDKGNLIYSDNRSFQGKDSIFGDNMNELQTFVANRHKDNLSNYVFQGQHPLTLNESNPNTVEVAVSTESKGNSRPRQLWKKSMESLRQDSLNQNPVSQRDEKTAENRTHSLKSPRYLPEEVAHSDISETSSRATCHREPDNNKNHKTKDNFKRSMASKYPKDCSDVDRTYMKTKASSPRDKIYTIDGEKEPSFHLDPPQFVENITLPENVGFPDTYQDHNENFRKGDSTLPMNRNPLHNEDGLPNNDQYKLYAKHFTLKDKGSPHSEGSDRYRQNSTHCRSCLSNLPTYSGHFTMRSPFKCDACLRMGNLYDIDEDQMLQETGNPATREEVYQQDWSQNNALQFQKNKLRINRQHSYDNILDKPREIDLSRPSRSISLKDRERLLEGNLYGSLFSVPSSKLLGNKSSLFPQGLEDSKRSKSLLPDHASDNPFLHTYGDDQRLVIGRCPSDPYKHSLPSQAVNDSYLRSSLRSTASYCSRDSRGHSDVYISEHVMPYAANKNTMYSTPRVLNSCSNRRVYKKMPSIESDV
IC50 [1] [µM],IC50 [2] [µM],IC50 [4] [µM],SMILES,ED50 [3] [mg/kg]
0.02,60,290,"Oc1ccc(OCCN2CCC(Cc3ccc(F)cc3)CC2)cc1 [Ex. 102, 1-[2-(4-Hydroxyphenoxy)ethyl]-4-(4-fluorobenzyl)piperidine hydrochloride]",3
0.03,35,45,"Cc1ccc(CC2CCN(CCOc3ccc4[nH]c(=S)[nH]c4c3)CC2)cc1 [Ex. 174, 4-(4-Methylbenzyl)-1-(2-(2-thioxobenzimidazol-5-oxy)ethyl)piperidine]",5
0.03,60,140,"Cc1ccc(CC2CCN(CCOc3ccc(O)cc3)CC2)c(F)c1 [Ex. 134, 4-(2-Fluoro-4-methylbenzyl)-1-(2-(4-hydroxyphenoxy)ethyl)piperidine hydrochloride]",1.5
0.1,7,130,"Oc1ccc2cc(OCCN3CCC(Cc4ccccc4)CC3)ccc2c1 [Ex. 189, 4-Benzyl-1-(2-(2-hydroxynaphth-6-oxy)ethyl)piperidine]",7
0.024,75,> 100,"O=c1[nH]c2ccc(OCCN3CCC(Cc4ccccc4)CC3)cc2[nH]1 [Ex. 59, 4-Benzyl-1-[2-(2-oxobenzimidazol-5-oxy)ethyl]piperidine]",1
170,270,> 300,"COc1ccc(C2CCN(CCCCc3ccccc3)CC2)cc1 [Ex. 166, 4-(4-Methoxyphenyl)-1-(4-phenylbutyl)piperidine]",0.7
0.1,35,210,"O=c1[nH]c2ccc(OCCN3CC=C(Cc4ccccc4)CC3)cc2[nH]1 [Ex. 177, 4-Benzyl-1-(2-(2-oxobenzimidazol-5-oxy)ethyl)-1,2,5,6-tetrahydropyridine]",5
0.05,65,301,"Cl.Oc1ccc(SCCN2CCC(Cc3ccc(F)cc3)CC2)cc1 [Ex. 165, 4-(4-Fluorobenzyl)-1-(2-(4-hydroxythiophenoxy)ethyl)piperidine hydrochloride]",0.5
0.4,60,> 100,"OCCc1cccc(OCCN2CCC(Cc3ccccc3)CC2)c1 [Ex. 18, 4-Benzyl-1-(2-(3-(2-hydroxyethyl)phenoxy)ethyl)piperidine]",6
0.04,110,> 300,"Oc1ccc(OCCN2CCC(Cc3ccccc3F)CC2)cc1 [Ex. 128, 1-[2-(4-Hydroxyphenoxy)ethyl]-4-(2-fluorobenzyl)piperidine hydrochloride]",1
2.8,35,> 100,"OC(COc1cccc2ccccc12)CN1CCC(Cc2ccccc2)CC1 (stereo not shown) [Ex. 3, 4-Benzyl-1-[2-hydroxy-3-(1-naphthyloxy)propyl]piperidine]",2
9.5,> 300,> 300,"Cc1ccc(CC2CCN(CCOc3ccc(Cl)cc3)CC2)cc1.Cl [Ex. 168, 1-(2-(4-Chlorophenoxy)ethyl)-4-(4-methylbenzyl)piperidine hydrochloride]",4
0.21,80,150,"Cc1ccc(CC2CCN(CCOc3ccc(F)cc3)CC2)c(F)c1 [Ex. 133, 4-(2-Fluoro-4-methylbenzyl)-1-(2-(4-fluorophenoxy)ethyl)piperidine hydrochloride]",2.5
0.07,50,> 300,"Oc1ccc(OCCN2CCC(O)(Cc3ccc(F)cc3)CC2)cc1 [Ex. 123, 1-[2-(4-Hydroxyphenoxy)ethyl]-4-(4-fluorobenzyl)-4-hydroxy-piperidine hydrochloride]",3
0.2,50,> 300,Oc1ccc(CC2CCN(CCOc3ccc(F)cc3)CC2)cc1 [Ex. 104],3
0.04,50,140,"Cc1ccc(CC2CCN(CCOc3ccc(O)c(F)c3)CC2)c(F)c1 [Ex. 149, 1-[2-(4-Hydroxy-3-fluorophenoxy)ethyl]-4-(2-fluoro-4-methylbenzyl)piperidine hydrochloride]",2
0.11,50,> 100,"O=c1[nH]c2cccc(OCCN3CCC(Cc4ccc(Cl)cc4)CC3)c2[nH]1 [Ex. 77, 4-(4-Chlorobenzyl)-1-[2-(2-oxobenzimidazol-4-oxy)ethyl]piperidine]",6

IC50 [1] [µM],IC50 [2] [µM],IC50 [4] [µM],SMILES,ED50 [3] [mg/kg]
1,95,> 300,"Fc1ccc(OCCN2CCC(Cc3ccccc3)CC2)cc1 [Ex. 103, 4-Benzyl-1-(2-(4-fluorophenoxy)ethyl)piperidine hydrochloride]",3
0.01,30,160,"Cl.Oc1ccc(OCCN2CCC(Cc3c(F)cccc3F)CC2)cc1 [Ex. 146, 1-[2-(4-Hydroxyphenoxy)ethyl]-4-(2,6-difluorobenzyl)piperidine hydrochloride]",0.8
0.4,190,> 300,"CN(CCN1CCC(Cc2ccccc2)CC1)c1ccccc1 [Ex. 143, 4-Benzyl-1-((2-(N-methyl-N-phenyl)amino)ethyl)piperidine dihydrochloride]",0.5
0.05,55,240,"Oc1ccc(OCCN2CCC(Cc3ccc(Cl)cc3)CC2)cc1 [Ex. 101, hydrochloride]",3
0.08,30,280,"Oc1ccc(OCCN2CCC(Cc3cccc(F)c3)CC2)cc1 [Ex. 112, 1-[2-(4-Hydroxyphenoxy)ethyl]-4-(3-fluorobenzylpiperidine hydrochloride]",4.5
0.11,50,> 100,"O=c1[nH]c2cccc(OCCN3CCC(Cc4ccccc4)CC3)c2[nH]1 [Ex. 55, 4-Benzyl-1-[2-(2-oxobenzimidazol-4-oxy)ethyl]piperidine]",6
0.9,90,> 100,"Fc1cccc(OCCCN2CCC(Cc3ccccc3)CC2)c1 [Ex. 22, 4-Benzyl-1-(3-(3-fluorophenoxy)propyl)piperidine hydrobromide]",4
45,75,> 100,"Fc1ccc(OCCN2CCC(Nc3ccc(Cl)cc3)CC2)cc1 [Ex. 38, 4-(4-Chloroanilino)-1-(2-(4-fluorophenoxy)ethyl)piperidine dihydrochloride]",10
0.02,52,100,"Cc1ccc(CC2CCN(CCOc3ccc(O)c(F)c3)CC2)cc1 [Ex. 151, 1-[2-(4-Hydroxy-3-fluorophenoxy)ethyl]-4-(4-methylbenzyl)piperidine hydrochloride]",2.5
0.05,50,> 300,"CC(C)c1ccc(CC2CCN(CCOc3ccc(O)cc3)CC2)cc1 [Ex. 131, 1-[2-(4-Hydroxyphenoxy)ethyl]-4-(4-isopropylbenzyl)piperidine hydrochloride]",1.5
8,30,100,"O=[N+]([O-])c1ccccc1OCCN1CCC(Cc2ccc(Cl)cc2)CC1 [Ex. 73, 4-(4-Chlorobenzyl)-1-[2-(2-nitrophenoxy)ethyl]piperidine]",8
0.04,62,230,"O=c1[nH]c2ccc(OCCCN3CCC(Cc4ccccc4)CC3)cc2[nH]1 [Ex. 170, 4-Benzyl-1-[3-(2-oxobenzimidazol-5-oxy)propyl]piperidine]",10
0.1,40,210,"Cc1ccc(CC2CCN(CCOc3ccc(O)c(C)c3)CC2)c(F)c1 [Ex. 147, 1-[2-(4-Hydroxy-3-methylphenoxy)ethyl]-4-(2-fluoro-4-methylbenzyl)piperidine hydrochloride]",3
0.03,25,50,"S=c1[nH]c2ccc(OCCN3CCC(Cc4ccc(Cl)cc4)CC3)cc2[nH]1 [Ex. 176, 4-(4-Chlorobenzyl)-1-(2-(2-thioxobenzimidazol-5-oxy)ethyl)piperidine]",7.5
0.18,55,280,"Oc1ccc(OCCN2CCC(Cc3ccc(F)c(F)c3)CC2)cc1 [Ex. 122, 1-[2-(4-Hydroxyphenoxy)ethyl]-4-(3,4-difluorobenzyl)piperidine hydrochloride]",5
0.04,72,170,"S=c1[nH]c2ccc(OCCN3CCC(Cc4ccccc4)CC3)cc2[nH]1 [Ex. 171, 4-Benzyl-1-(2-(2-thioxobenzimidazol-5-oxy)ethyl)piperidine]",5
1,43,210,"O=c1[nH]c2ccc(OCCN3CCC(Cc4ccccc4)CC3)cc2o1 [Ex. 182, 4-Benzyl-1-(2-(2-oxobenzoxazol-6-oxy)ethyl)piperidine]",> 20

# From US6124323A, “4-substituted piperidine analogs and their use as subtype selective NMDA receptor antagonists” (Warner-Lambert Company, priority 1998, dated 2000)
